# What was measured:
# Assay type in all cases: physicochemical
# [1] = Absolute fluorescence quantum yield (integrating sphere); conditions: in H2O
# Procedure: Fluorescent dyes were dissolved in the appropriate solvents to afford 1 mM solutions prior to spectroscopic analysis. A portion of 30 μL of a 1 mM solution was diluted by adding a selected solvent to a sample with a total volume of 3000 μL, affording a 1×10^−5 M solution. UV/Vis Absorption spectra were recorded in glass cuvettes on a UV-3600 Shimadzu spectrophotometer. Steady-state emission spectra were acquired in quartz cuvettes with optical path-lengths of 10 mm containing the solution being analyzed using a HORIBA Fluoromax4 spectrofluorometer, which was equipped with an integrating sphere for determining the absolute photoluminescence quantum yield.
# (§1) Steady-state and time-resolved emission spectra for dyes 1-6, 7·2PF6 and 9·4PF6 were acquired using a HORIBA Fluorolog-3 spectrofluorometer, equipped with a time-correlated single photon counting (TCSPC) module (diode laser excitation at λ=375 nm) and an integrating sphere, which was used for absolute photo-luminescence quantum yield determinations. Picosecond time-resolved fluorescence measurements were recorded using a commercial direct-diode-pumped 100 kHz amplifier (Spirit 1040-HE, Spectra-Physics), producing a fundamental beam of 1040 nm (350 fs, 12 W) which was used to pump a non-collinear optical parametric amplifier (Spirit-NOPA, SpectraPhysics) capable of delivering tunable, high-repetition-rate pulses with pulse widths as short as sub-20 fs. Dyes 1-6, 7·2PF6 and 9·4PF6 were excited with 350 nm, 2 nJ laser pulses. Fluorescence was detected using a Hamamatsu C4780 Streakscope as previously described in the literature. Samples were prepared in 2-mm quartz cuvettes. All data were acquired in the single-photon-counting mode using the Hamamatsu HPD-TA software. The temporal resolution was approximately 2% of the sweep window. Single wavelength kinetic analysis was performed using a nonlinear least-squares fit to a sum of exponentials convoluted with an instrument response function. Visible and near-infrared femtosecond and nanosecond transient absorption (fsTA and nsTA, respectively) spectroscopies were performed following descriptions already recorded in the literature. The 330 nm, ˜100 fs pump pulses were generated at 1 μJ per pulse using a commercial collinear optical parametric amplifier (TOPAS-Prime, Light-Conversion, Ltd.); 414-nm pump pulses were obtained by second-harmonic generation of the 828 nm fundamental. The pump polarization was randomized using a commercial depolarizer (DPU-25-A, Thorlabs, Inc.) to eliminate any orientational dynamics resulting from the experiment. Spectra were collected on commercial spectrometers (customized Ultrafast Systems Helios and EOS spectrometers, for fsTA and nsTA, respectively) for each time window. All samples were stirred to avoid localized heating or degradation effects. The optical density was maintained at 0.6 for all samples.
# Steady-state and time-resolved emission spectra for dyes 7·2PF6 and 9·4PF6 were acquired using a HORIBA Fluorolog-3 spectrofluorometer, equipped with a time-correlated single photon counting (TCSPC) module (diode laser excitation at =375 nm) and an integrating sphere, which was used for absolute photo-luminescence quantum yield determinations. Picosecond time-resolved fluorescence measurements were recorded using a commercial direct-diode-pumped 100 kHz amplifier (Spirit 1040-HE, Spectra-Physics), producing a fundamental beam of 1040 nm (350 fs, 12 W) which was used to pump a non-collinear optical parametric amplifier (Spirit-NOPA, SpectraPhysics) capable of delivering tunable, high-repetition-rate pulses with pulse widths as short as sub-20 fs. The samples 7·2PF6 and 9·4PF6 were excited with […], 2 nJ laser pulses. Fluorescence was detected using a Hamamatsu C4780 Streakscope as previously described in the literature.^71 Samples were prepared in 2-mm quartz cuvettes. All data were acquired in the single-photon-counting mode using the Hamamatsu HPD-TA software. […]
# [2] = Transient absorption (fsTA/nsTA) and time-resolved fluorescence spectroscopy; conditions: in H2O
# From the text: The excited-state properties of these quadrupolar dyes were investigated using transient absorption (TA) spectroscopy. The TA data of dyes 1-4 and 6 in MeCN with lex=350 nm (FIGS. 9-12 and 15) show similar spectra with the same general electronic evolution, though with differing kinetics. Following excitation, strong excited-state absorption features appear between ˜450-500 nm along with a strong single peak in the near-infrared region, both of which are associated with Sn←S1 absorptions. The visible bands redshift over the following ˜100 ps, while the near-infrared band peaks first blueshift in the initial ˜10 ps before settling. These near-infrared absorption bands are similar to those observed^59,60 in extended bipyridinium compounds. Following these shifts, the excited states decay via emission with lifetimes between 3-4 ns as confirmed by time-resolved fluorescence (TRF) spectroscopy. The spectral shape of the transient species is generally maintained throughout their lifetimes, implying that the dynamics in each dye all occur on a single electronic excited state (S1) prior to emission. The spectral shifts at early times may arise due to excited-state symmetry breaking^77-78 in the quadrupolar dyes, wherein fluctuations in the instantaneous electrostatic environment afforded by the solvent transiently favor wavefunction localization on one side of the symmetric molecule, creating an excited state with a large dipole moment that is associated with the Stokes shift observed^79 in the fluorescence spectra. This localization can lead to changes in the transient absorption spectra as a result of the breakdown^42,80 of the Laporte rule. The shifts at longer times may arise from solvent or structural relaxation of the dyes.
# as §1, with “samples. […]” for “samples.”
# [3] = Absolute fluorescence quantum yield (integrating sphere); conditions: 414 nm excitation
structure (smiles),measurement,setting,value
COc1cc2c(OC)cc1-c1cc[n+](cc1)Cc1ccc(cc1)C[n+]1ccc(cc1)-c1cc(OC)c(cc1OC)-c1cc[n+](cc1)Cc1ccc(cc1)C[n+]1ccc-2cc1 [9·4Cl],Quantum Yield (ΦF),[1],0.15
same,rate constant k2 from TA data,[2],(188 ± 4 ps)^−1 (ps)^−1
same,rate constant k3 from TA data,[2],(3.45 ± 0.01 ns)^−1 (ns)^−1
same,radiative decay rate constant kR,[2]; kR = kobsΦF,(17.9 ± 0.6 ns)^−1 (ns)^−1
same,ΦF in the solid-state (powder),[3],0.016±0.005

# Source: US20250085201A1, “SUBSTITUTED QUADRUPOLAR FLUORESCENT DYES FOR LIVE CELL IMAGING” (Northwestern University, priority 2023, published 2025)
